Results taken from patent US20100144779A1, “Marine Alkalod Makaluvamines and Derivatives Thereof” (THE UAB RESEARCH FOUNDATION, priority 2007, published 2010).
“Also recorded” adds a separate entry of the source.

How the values were obtained:
[1] = target: T1, topoisomerase II (Homo sapiens, UniProt P11388); test: Topoisomerase II drug screening kit (relaxation of plasmid DNA); assay type: biochemical; parameters: key to Topoisomerase II Inhibition: — none; + low; ++ moderate; +++ strong; conditions: for Topoisomerase II Inhibition: 100 μM drug compound, topoisomerase II (4U), 500 ng plasmid DNA; for inhibition of topoisomerase II catalytic activity (in words): 100 μM makaluvamine derivative
T1 construct: purchased TopoGEN, Inc., Port Orange, Fla
Excerpt: In order to determine the effect of the makaluvamine derivatives of the present disclosure, the synthesized makaluvamine derivatives were screened for their ability to inhibit topoisomerase II activity in vitro. Topoisomerase II functions by generating a double-stranded DNA break followed by resealing of the break. Topoisomerase II inhibitors interfere with the breakage-rejoining reaction thereby trapping the enzyme in a cleavage complex. In order to determine if the disclosed makaluvamine derivatives inhibited topoisomerase II activity, nine of the derivatives were tested for topoisomerase II inhibitory activity using a topoisomerase-II drug screening kit (TopoGEN, Inc., Port Orange, Fla.) according to the manufacturer's instructions. The screening kit uses a supercoiled plasmid DNA substrate (pRYG) which contains one topoisomerase II cleavage/recognition site. […] Relaxed DNA was separated using non-ethidium bromide (EtBr) agarose gels, then stained with EtBr and quantified using Kodak Gel Logic Imaging System and Molecular Imaging software (Eastman Kodak Co., Rochester, N.Y.). Inhibition of relaxation of plasmid DNA or catalytic activity was reported as; − none, + low, ++ moderate, or +++ strong.

[2] = test system: MCF-7; test: XTT cytotoxicity assay; assay type: cell-based, human; conditions: XTT; average ± standard deviation of 2-4 independent assays; read-out: Inhibition of Cancer Cell Proliferation (IC50) MCF-7
Description: (§1) In initial experiments, compounds 4a-g and 7c-g were evaluated for their cytotoxicity against human breast cancer cell lines MCF-7 and MDA-MB-468 and human colon cancer cell line HCT-116. The makaluvamine compounds provided in Table 2 were also evaluated for their cytotoxicity against human breast cancer cell lines MCF-7. Compound nos. 8 and 27-33 were not evaluated in this experiment. Cells were obtained from ATCC (Manassas, Va.). For each derivative the IC50 value was determined using data generated from 2-4 independent tetrazolium-based (XTT) cytotoxicity assays (R & D Systems Inc., Minneapolis, Minn.) according to the manufacturer's instructions. […] MCF-7, MDA-MD-468 and HCT-116 cells were grown at 37 degrees C. in a humidified atmosphere with complete growth media supplemented with fetal bovine serum. Growth media was changed 2-3 times per week as required.

[3] = test system: MDA-MB-468; test: XTT cytotoxicity assay; assay type: cell-based, human; conditions: average ± standard deviation of 2-4 independent assays, read-out: Inhibition of Cancer Cell Proliferation (IC50) MDA-MB-468
Description: as §1

[4] = test system: HCT-116; test: XTT cytotoxicity assay; assay type: cell-based, human; conditions: average ± standard deviation of 2-4 independent assays, read-out: Inhibition of Cancer Cell Proliferation (IC50) HCT-116
Description: as §1

[5] = test system: MDM2; test: Protein expression, Western blot in MCF-7 cells; assay type: cell-based, human; conditions: 1 μM, 6 h (FIG. 4A)
Description: (§2) In FIG. 4A, MCF-7 cells were exposed to 1 μM concentration of the indicated compounds for 6 hours. Western blots were probed with antibodies specific for the proteins indicated. Numbers below each lane show densitometry readings for each lane as compared to control. […] Western blots were probed with antibodies specific for the proteins indicated.
(§3) To determine the disclosed compounds effect on protein expression in human breast cancer cells, cultured MCF-7 cells were exposed to various concentrations of the test compounds for 6 h (FIG. 4A) or 24 h (FIG. 4B). Cell lysates were fractionated with identical amounts of protein by SDS-PAGE and transferred to Bio-Rad trans-Blot nitrocellulose membranes (Bio-Rad Laboratories, Hercules, Calif.). The nitrocellulose membrane was incubated in blocking buffer (Tris-buffered saline containing 0.1% Tween 20 and 5% nonfat milk) for 1 h at room temperature, then with the appropriate primary antibody overnight at 4° C. or 2 h at room temperature with gentle shaking. Finally, the membrane was washed three times with the washing buffer (Tris-buffered saline containing 0.1% Tween 20) for 15 min, incubated with goat anti mouse/rabbit IgG-horseradish peroxidase-conjugated antibody (Bio-Rad) for 1 h at room temperature, and washed again (in triplicate). The protein of interest was detected by enhanced chemiluminescence reagents from PerkinElmer LAS, Inc (Boston, Mass.).

[6] = test system: p21; test: Protein expression, Western blot in MCF-7 cells; assay type: cell-based, human; conditions: 1 μM, 6 h (FIG. 4A)
Description: as §2, §3

[7] = test system: p53; test: Protein expression, Western blot in MCF-7 cells; assay type: cell-based, human; conditions: 1 μM, 6 h (FIG. 4A)
Description: as §2, §3

[8] = test system: MCF7 cells; test: MTT growth inhibition assay; assay type: cell-based, human; conditions: Table 5, MTT, 72 hr; for IC50: read-out: Growth inhibitory activity (IC50) in MCF7 cells
Description: The cell lines were obtained from the American Type Culture Collection (Rockville, Md.) and were grown as follows: MCF-7 (p53 wt) breast cancer cells were grown in DMEM media containing 1 mM non-essential amino acids, Earle's BSS, 1 mM Na pyruvate, and 10 mg/L bovine insulin.
All media contained 10% FBS and 1% penicillin/streptomycin unless otherwise specified. The effects of disclosed compounds on human cancer cell growth, expressed as the percentage of cell survival, were determined by the MTT [3-(4,5-Dimethyl-2-thiazolyl)-2,5-diphenyl-2H-tetrazolium bromide] assay. Cells were grown in 96-well plates and exposed to the test compounds (0, 0.01, 0.1, 1, 10, 100 μM) for 72 hr followed by addition of 10 μL MTT solution (5 mg/mL; Sigma; St. Louis, Mo.) to each well. The plates were incubated for 2-4 hr at 37° C. The supernatant was then removed and formazan crystals were dissolved with 100 μL of DMSO. The absorbance at 570 nm was recorded with an OPTImax microplate reader (Molecular Devices; Sunnyvale, Calif.). The cell survival percentages were calculated by dividing the mean OD of compound containing wells by that of DMSO-control wells. Three separate experiments were accomplished to determine the IC50.

T1 sequence (P11388 whole entry): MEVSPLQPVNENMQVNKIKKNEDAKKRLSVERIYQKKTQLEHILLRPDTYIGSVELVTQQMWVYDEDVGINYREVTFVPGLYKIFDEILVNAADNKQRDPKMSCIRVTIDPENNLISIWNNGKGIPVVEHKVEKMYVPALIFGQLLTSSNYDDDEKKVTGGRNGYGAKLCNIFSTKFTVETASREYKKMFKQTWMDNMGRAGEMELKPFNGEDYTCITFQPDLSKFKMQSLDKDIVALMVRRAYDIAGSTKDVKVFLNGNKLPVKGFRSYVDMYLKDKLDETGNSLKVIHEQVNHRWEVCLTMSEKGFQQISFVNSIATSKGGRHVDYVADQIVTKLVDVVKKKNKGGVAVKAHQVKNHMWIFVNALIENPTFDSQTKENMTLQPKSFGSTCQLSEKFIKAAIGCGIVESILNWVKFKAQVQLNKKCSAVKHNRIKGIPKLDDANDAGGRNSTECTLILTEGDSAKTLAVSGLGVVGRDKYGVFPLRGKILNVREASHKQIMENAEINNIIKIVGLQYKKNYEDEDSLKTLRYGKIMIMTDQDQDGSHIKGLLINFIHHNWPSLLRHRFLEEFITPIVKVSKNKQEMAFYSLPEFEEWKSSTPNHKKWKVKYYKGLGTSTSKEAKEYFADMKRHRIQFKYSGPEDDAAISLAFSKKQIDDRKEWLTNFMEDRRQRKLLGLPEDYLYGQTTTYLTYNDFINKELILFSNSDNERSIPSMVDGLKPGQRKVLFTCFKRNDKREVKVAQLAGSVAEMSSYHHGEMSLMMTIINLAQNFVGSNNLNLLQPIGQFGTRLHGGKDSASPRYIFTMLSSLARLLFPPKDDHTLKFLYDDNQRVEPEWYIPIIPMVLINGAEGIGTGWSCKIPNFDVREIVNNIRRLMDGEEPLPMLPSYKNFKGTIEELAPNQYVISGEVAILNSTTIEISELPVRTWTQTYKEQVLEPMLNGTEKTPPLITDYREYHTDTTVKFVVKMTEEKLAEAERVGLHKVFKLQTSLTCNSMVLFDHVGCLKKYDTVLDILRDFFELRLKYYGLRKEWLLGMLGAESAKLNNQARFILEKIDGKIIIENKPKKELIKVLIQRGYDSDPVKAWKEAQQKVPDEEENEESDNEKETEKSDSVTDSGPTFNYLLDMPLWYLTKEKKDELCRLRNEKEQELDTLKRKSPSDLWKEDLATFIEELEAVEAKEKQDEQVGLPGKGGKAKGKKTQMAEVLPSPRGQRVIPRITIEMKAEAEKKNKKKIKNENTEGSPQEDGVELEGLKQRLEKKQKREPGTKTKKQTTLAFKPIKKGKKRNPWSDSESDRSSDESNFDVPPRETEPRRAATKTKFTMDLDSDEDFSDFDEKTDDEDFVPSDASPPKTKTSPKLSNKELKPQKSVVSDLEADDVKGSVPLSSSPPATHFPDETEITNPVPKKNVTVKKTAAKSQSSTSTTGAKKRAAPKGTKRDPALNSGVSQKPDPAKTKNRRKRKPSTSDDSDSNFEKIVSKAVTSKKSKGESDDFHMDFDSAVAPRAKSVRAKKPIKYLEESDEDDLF

| Structure (SMILES) | Topoisomerase II Inhibition [1] | IC50 [2] | IC50 [3] | IC50 [4] | expression of MDM2 [5] | expression of p21 [6] | expression of p53 [7] | inhibition of topoisomerase II catalytic activity (in words) [1] | Growth inhibitory activity (IC50) in MCF7 cells [8] | IC50 [8] |
| --- | --- | --- | --- | --- | --- | --- | --- | --- | --- | --- |
| COc1cc(NS(C)(=O)=O)ccc1Nc1c2ccccc2nc2ccccc12 [m-AMSA, reference compound] | ++ | 21700 nM | 8500 nM | 700 nM |  |  |  |  |  |  |
| O=C1C(NCCc2cc(Br)c(O)c(Br)c2)=CC2=NCCc3c[nH]c1c32 [Compound 4f] | +++ | 13200 ± 3100 nM | 4500 ± 800 nM | 14400 ± 1200 nM | increased the expression | increased the expression | increased the expression | comparable to etoposide and m-AMSA; also recorded: strongest inhibition | μM range | 2720 nM |
| O=C1C(NCCc2c[nH]c3ccccc23)=CC2=NCCc3c[nH]c1c32 [Compound 4g] | — | 1600 ± 200 nM | 400 ± 10 nM | 5200 ± 800 nM |  |  |  |  |  |  |
| CCNC1=CC2=NCCc3c[nH]c(c32)C1=O [Compound 4b] | — | 1300 ± 300 nM | 400 ± 30 nM | 3600 ± 700 nM |  |  |  |  |  |  |
| Cc1ccc(S(=O)(=O)n2cc3c4c2C(=O)C(NCc2ccccc2)=CC4=NCC3)cc1 [Compound 7c] | +++ | 1800 ± 200 nM | 1000 ± 10 nM | 2700 ± 1500 nM | inhibited the expression | decreased the expression | increased the expression | comparable to etoposide and m-AMSA; also recorded: strongest inhibition | μM range | 1200 nM |
